Here are results for six molecules from patent US11116819B2, “Methods and compositions for mobilizing stem cells” (President and Fellows of Harvard College, priority 2013, dated 2021).

“Also recorded” adds a separate entry of the source.

Data set [1] deals with long term reconstituting cells (HSPC). Put plainly: Competitive transplantation of mobilized peripheral blood into lethally irradiated congenic recipients (incl. serial transplant). The class given is in vivo, mice. Conditions: for potency of mobilization with AMD3100 compared with AMD3100 alone: AMD3100 5 mg/kg plus heparin 100 U/mouse or protamine sulfate 40 mg/kg, relative frequency of engrafted donor cells, AMD3100 alone = 1; for stem cell mobilization by the agent alone: Example 3, data not shown; for mobilization of long term reconstituting cells (PB competitive transplantation, primary recipients): wild type mice, single dose heparin 100 U/mouse added to G-CSF regimen. The protocol: Blood from animals treated with single dose AMD3100 alone (5 mg/kg) or AMD3100 plus heparin (100 U/mouse) or protamine sulfate (40 mg/kg) was used in transplantation of lethally irradiated congenic hosts and the relative frequency of engrafted donor cells is indicated. Line at 1=AMD3100 alone. Results are from 6-10 animals/group.
Hypothesizing that endogenous HSPG could be competed with by known pharmacologic HSPG, we examined whether heparin sulfate could mimic the EXT1 deletion effect on stem cell localization. Initially, this was done using a single dose of heparin sulfate (100 U/mouse) after a standard G-CSF mobilization regimen, harvesting the peripheral blood and using it to reconstitute lethally irradiated congenic recipients (FIG. 3). The primary recipients were then harvested after 4 months and used to transplant secondary lethally irradiated recipients.
For non-competitive BM transplantation, to create the chimeras described in FIG. 1a, one million whole BM cells from B6.SJL (CD45.1) mice were transplanted into lethally irradiated (9.5 Gy from a Cesium source 4-24 hours before transplantation) Ext1-loxP/loxP-Mx1cre (CD45.2) recipients six-to-eight weeks before pIpC administration. Neutrophil and platelet recovery assay was performed as previously described (Hoggatt et al., 2013). Briefly, 3 million mobilized PB mononuclear cells (MNC) from C57BL/6J (CD45.2) mice were transplanted into lethally irradiated B6.SJL (CD45.1) mice and followed up for at least 36 days. For transplantation without cytotoxic conditioning, 1, 4 or 8 million whole BM cells from B6.SJL mice were transplanted into Ext1-loxP/loxP-Mx1cre recipients three weeks after pIpC administration. For competitive transplantation of mobilized peripheral blood (PB), 150 ul of PB (CD45.2) was mixed with 2×10^5 congenic BM support cells and injected into lethally irradiated CD45.1 recipients. Cells were infused via lateral tail vein injection. Engraftment was monitored at 4-week intervals by FACS analysis.
(§1) Recombinant human G-CSF (Neupogen, Filgrastrim) was administered at 125 ug/kg of TBW every 12 hours for eight consecutive injections. Heparin Sodium (APP Pharmaceuticals) was injected i.p. at a single dose of 100 U. Hirudin was used at 40 mg/kg of TBW in a single dose. Vcam1 neutralizing antibody and the corresponding isotype control (Rat IgG2a, k) were injected intravenously at 2 mg/kg of TBW every day for three doses and PB samples were obtained through retro-orbital bleeding the day following the last injection. AMD3100 was administered subcutaneously at a single dose of 5 mg/kg TBW. PB samples were obtained through retro-orbital bleeding 3 hours after the last injection of G-CSF and 1 hour after Heparin, AMD3100, or Hirudin injection.

In the next data set the test system is CD34+ cells. Conditions: cited from earlier work.
The test system of data set [2] is HSPC. Nature of the data set: HSPC mobilization in mice (background statements, GRO-β and heparin). The class given is in vivo. The note with it: unlike G-CSF; data not shown. As for the experimental part: It does so acutely, mobilizing HSPC maximally by 15 minutes post infusion in mice. […] It is an excellent candidate to serve as a niche-vacating agent. We have also recently identified a novel involvement of heparan sulfate proteoglycans […] in HSC retention in the bone marrow that can be manipulated pharmacologically to induce stem cell mobilization of cells functionally distinctive from those mobilized by G-CSF. This process is one that involves the use of heparin and AMD3100 and achieves robust mobilization using approved agents that can quickly move to clinical trial.

Data set [3] concerns HSPC. Conditions: cited from earlier work.
Data set [4] concerns circulating hematopoietic stem/progenitor cells (HSPC). Put plainly: Peripheral blood colony forming unit (CFU-C) assay of circulating progenitors after mobilization. It counts as in vivo, mice. As for the experimental part:
as §1
CFU assays were performed as previously described (Ferraro et al., 2011). Equal volumes of PB (50 to 200 juL depending upon the experiment) were subjected to red blood cell lysis with ammonium-chloride-potassium buffer, resuspended in 4 ml of methocult M3434 (Stem Cell Technologies), plated in 35 mm culture dishes (1 mL/dish) and cultured at 37° C. for 8 days before scoring for colony formation.

Data set [5] can be described thus: Peripheral WBC count (complete blood count) after mobilization. The note with it: C57BL/6J mice; heparin alone 100 U/mouse one hour before PB harvest, vs vehicle. The class given is in vivo. As for the experimental part: as §1
Blood counts were performed with the automatic Vetscan HM2 (Abaxis).

The next data set has as its system Vcam1. Nature of the data set: Vcam1 protein level in CD45−Ter119−Mx1+ mesenchymal cells (flow cytometry). It counts as in vivo, mice. The note with it: heparin one hour before PB harvest vs vehicle. The protocol:
Immunophenotypic characterization of the hematopoietic and mesenchymal compartments was performed as previously described (Gurumurthy et al., 2010). For details see supplementary information. Vcam1 and Cxcl12 protein levels were evaluated with an anti-Vcam1-APC and an anti-Cxcl12-APC antibody respectively and the corresponding isotype controls (R&D Systems). All data collection was performed on an LSRII or FACS Aria II (Beckon Dickinson) and data analysis was performed with FlowJo (Treestar).
as §1
For orientation: A flow cytometer gives signals particle by particle.

The subject of the next data set is HSPCs. Put plainly: Type I diabetes-induced mobilopathy model, G-CSF mobilization with PB competitive transplantation. Conditions: G-CSF alone. It counts as in vivo, mice. The source says:
Hematopoietic stem cell transplantation remains the gold standard curative therapy for a number of hematological disorders. However, G-CSF mobilization resistance may compromise lifesaving therapy for some individuals. We therefore evaluated whether genetic or pharmacological competitive inhibition of HSPG may facilitate G-CSF-induced HSPC egress from the BM in a murine model of Type I diabetes-induced mobilopathy (Ferraro et al., 2011). […] However, the compromised response to G-CSF was fully corrected in Type I diabetic mice lacking Ext1 expression in Mx1+ mesenchymal cells (FIG. 9K).
For non-competitive BM transplantation, to create the chimeras described in FIG. 1a, one million whole BM cells from B6.SJL (CD45.1) mice were transplanted into lethally irradiated (9.5 Gy from a Cesium source 4-24 hours before transplantation) Ext1-loxP/loxP-Mx1cre (CD45.2) recipients six-to-eight weeks before pIpC administration. Neutrophil and platelet recovery assay was performed as previously described (Hoggatt et al., 2013). Briefly, 3 million mobilized PB mononuclear cells (MNC) from C57BL/6J (CD45.2) mice were transplanted into lethally irradiated B6.SJL (CD45.1) mice and followed up for at least 36 days. […] Engraftment was monitored at 4-week intervals by FACS analysis. […]

Consider `c1cc(CN2CCCNCCNCCCNCC2)ccc1CN1CCCNCCNCCCNCC1` [AMD3100], for which the “G-CSF-induced mobilization in Ext1 deficient mice (relative PB reconstitution)” value in data set [1] (AMD3100 in combination with G-CSF vs G-CSF alone) is on record as “augments G-CSF-induced mobilization”. Moreover, the “patients reporting diarrhea or injection site reaction” value in the data set on CD34+ cells (after Plerixafor administration) was “approximately 33%”.

“GRO-β: CXCR2 agonist chemokine capable of rapidly mobilizing HSPCs”: the “changes in marrow morphology by immunohistochemistry” value with HSPC [2] is reported as “not associated with changes in marrow morphology”. In addition, the “time of maximal HSPC mobilization post infusion” value in the data set on HSPC [3] (mice) was 15 min. The “engraftment potential of mobilized long term repopulating HSCs compared with G-CSF” value in the data set with HSPC [3] (mouse, in vivo) is “superior engraftment potential”.

With heparin, the “number of circulating HSPCs as measured by CFU assays” value in data set [4] (C57BL/6J mice, heparin alone 100 U/mouse one hour before PB harvest, vs vehicle (PBS)) was “modest, yet significant increase; also recorded: enhanced HSPC mobilization compared to vehicle”. Also, in data set [4] (heparin plus AMD3100 vs AMD3100 alone), the “AMD3100-induced mobilization (CFU) with co-administration of heparin” value is recorded as “enhances AMD3100-induced mobilization”. In data set [1], the “potency of mobilization with AMD3100 compared with AMD3100 alone” value is “enhance potency of mobilization compared with AMD3100 alone” and the “stem cell mobilization by the agent alone” value is “Neither were sufficiently effective alone”. Besides, in data set [1] (heparin 100 U/mouse added to G-CSF regimen, vs G-CSF alone, secondary lethally irradiated recipients), the “secondary engraftment / self-renewal of mobilized cells (serial transplantation)” value was “distinctly more capable at providing secondary engraftment”. For the same molecule, the “HSPC mobilization in Ext1 mutant (EXT1 KO) mice” value in data set [1] (heparin added to G-CSF vs G-CSF alone, Ext1 mutant mice) was “loss of its effect”. The “mobilization of long term reconstituting cells (PB competitive transplantation, primary recipients)” value in data set [1] (vs G-CSF alone) is “significantly enhances G-CSF induced mobilization”. Moreover, the “mobilization of long term reconstituting cells (PB competitive transplantation, primary recipients)” value in data set [1] (vs G-CSF alone, listed as heparin sulfate) is recorded as “additive mobilization of stem cells”. Further, the WBC counts result in data set [5] is given as “without a significant change”. Also, the “Vcam1 levels in Mx1+ mesenchymal cells” value in the data set on Vcam1 is listed as “does not modulate Vcam1 levels”. Further, the “ability to induce mobilization on its own” value with HSPC [3] (Frenette and Weiss, 2000) is given as “lack the ability to induce mobilization on its own”.

With hirudin, the “effect on G-CSF-induced HSPC mobilization (relative PB reconstitution 16 weeks post transplantation)” value in data set [1] (hirudin 40 mg/kg single dose with G-CSF, C57BL/6J mice) was “did not impact G-CSF-induced HSPC mobilization”.

Regarding protamine sulfate, in data set [1], the “potency of mobilization with AMD3100 compared with AMD3100 alone” value is given as “enhance potency of mobilization compared with AMD3100 alone” and the “stem cell mobilization by the agent alone” value is reported as “Neither were sufficiently effective alone”.

B1: G-CSF: Recombinant human G-CSF, hematopoietic growth factor used clinically to mobilize HSC and HPC (protein, UniProt P09919 31-207, looked up)
Granulocyte …: TPLGPASSLPQSFLLKCLEQVRKIQGDGAALQEKLVSECATYKLCHPEELVLLGHSLGIPWAPLSSCPSQALQLAGCLSQLHSGLFLYQGLLQALEGISPELGPTLDTLQLDVADFATTIWQQMEELGMAPALQPTQGAMPAFASAFQRRAGGVLVASHLQSFLEVSYRVLRHLAQP
modifications: filgrastim
notes: Recombinant human G-CSF, hematopoietic growth factor used clinically to mobilize HSC and HPC
Take B1: the “HSPC mobilization in Type I diabetic mice” value in the data set with HSPCs is “failed to efficiently mobilize HSPCs”. Also, the “poor mobilization in response to G-CSF, share of normal, healthy donors” value in the data set with CD34+ cells (normal, healthy donors) is 15%. For the same molecule, the “patients failing to mobilize an optimal CD34+ cell number for autologous transplantation” value in the data set with CD34+ cells (patients, G-CSF mobilization) is recorded as “Up to 60%”.
